# Experimental data as given in US7947666B2, “2-methylene-(20S,25S)-19,26-dinor-vitamin D analogs” (Wisconsin Alumni Research Foundation, priority 2007, dated 2011).
# Like-named read-outs stand apart in the source and are kept apart here.
# Legend:
# [1] = tested on: HL-60 cells; assay: HL-60 differentiation (nitro blue tetrazolium reduction); assay type: cell-based, human; conditions: 4 days, NBT reduction, FIG. 2, read-out: EC50, HL-60 cell differentiation
# Method: The study drugs were dissolved in ethanol and the concentrations determined using UV spectrophotometry. Serial dilutions were prepared so that a range of drug concentrations could be tested without changing the final concentration of ethanol (≦0.2%) present in the cell cultures.
# Human promyelocytic leukemia (HL60) cells were grown in RPMI-1640 medium containing 10% fetal bovine serum. The cells were incubated at 37° C. in the presence of 5% CO2.
# HL60 cells were plated at 1.2×10^5 cells/ml. Eighteen hours after plating, cells in duplicate were treated with drug. Four days later, the cells were harvested and a nitro blue tetrazolium reduction assay was performed (Collins et al., 1979; J. Exp. Med. 149:969-974). The percentage of differentiated cells was determined by counting a total of 200 cells and recording the number that contained intracellular black-blue formazan deposits. Verification of differentiation to monocytic cells was determined by measuring phagocytic activity (data not shown).
# [2] = tested on: vitamin D-deficient rats; assay: Intestinal calcium transport, everted gut sac method; assay type: in vivo, rat; conditions: for intestinal calcium transport: everted gut sac
# Method: (§1) Male, weanling Sprague-Dawley rats were placed on Diet 11 (0.47% Ca) diet +AEK oil for one week followed by Diet 11 (0.02% Ca) +AEK oil for 3 weeks. The rats were then switched to a diet containing 0.47% Ca for one week followed by two weeks on a diet containing 0.02% Ca. Dose administration began during the last week on 0.02% calcium diet. Four consecutive ip doses were given approximately 24 hours apart. Twenty-four hours after the last dose, blood was collected from the severed neck and the concentration of serum calcium determined as a measure of bone calcium mobilization. The first 10 cm of the intestine was also collected for intestinal calcium transport analysis using the everted gut sac method.
# Intestinal calcium transport was evaluated in the same groups of animals using the everted gut sac method (FIGS. 5A and 5B).
# [3] = tested on: vitamin D-deficient rats; assay: Bone calcium mobilization (serum calcium); assay type: in vivo, rat; conditions: for bone calcium mobilization (serum calcium levels): all dosages / overall, FIGS. 4A and 4B; for bone calcium mobilization (serum calcium): rats on low calcium diet (0.02%)
# Method: as §1
# Calcium mobilization from bone and intestinal calcium absorption in vitamin D-deficient animals.
# [4] = tested on: 24-hydroxylase (24Ohase) gene promoter; assay: In vitro transcription assay, luciferase reporter in ROS 17/2.8 (bone) cells; assay type: cell-based; conditions: ROS 17/2.8 cells, 24-hydroxylase promoter luciferase, 16 h; FIG. 3; read-out: EC50, transcriptional activity in bone cells
# Method: Transcription activity was measured in ROS 17/2.8 (bone) cells that were stably transfected with a 24-hydroxylase (24Ohase) gene promoter upstream of a luciferase reporter gene (Arbour et al., 1998). Cells were given a range of doses. Sixteen hours after dosing the cells were harvested and luciferase activities were measured using a luminometer.
# RLU=relative luciferase units.
# [5] = 260 pmol/day ip for 4 consecutive days
# [6] = 7020 pmol/day ip for 4 consecutive days
EC50 [4],"EC50 ([1]; Homo sapiens, 96 h)",SMILES,EC50 [1],"intestinal calcium transport [2, 5]",bone calcium mobilization (serum calcium levels) [3],"intestinal calcium transport [2, 6]","intestinal calcium transport activity compared to 1,25(OH)2D3 ([2]; overall, FIGS. 5A and 5B, two batches of rats)","bone calcium mobilization (serum calcium) [3, 5]","bone calcium mobilization (serum calcium) [3, 6]","times less potent than the native hormone in mobilizing bone calcium store ([3]; rats, compared to 1,25(OH)2D3, same increase in serum calcium)"
–,–,"C=C1/C(=C\C=C2/CCC[C@]3(C)[C@@H]([C@H](C)CCCC(C)(C)O)CC[C@@H]23)C[C@@H](O)C[C@@H]1O [1,25(OH)2D3, 1α,25-dihydroxyvitamin D3, reference compound]",2 nM,promotes a significant increase,increased serum calcium levels at all dosages,–,–,–,–,–
0.03 nM,0.5 nM,"C=C1[C@H](O)CC(=C/C=C2\CCC[C@@]3(C)C2CC[C@@H]3[C@@H](C)CCC[C@H](C)O)C[C@H]1O (stereo partly drawn) [A4, 2-methylene-(20S,25S)-19,26-dinor-1α,25-dihydroxyvitamin D3]",–,promotes intestinal calcium transport only slightly,very little bone calcium mobilization activity,significant intestinal calcium transport activity,very little activity,did not result in mobilization of bone calcium,without any substantial effect,approximately 100 times
